Data on seven compounds can be found in paper PMC11943723, “Synthesis and Biological Activity of Glycosyl Thiazolyl Disulfides Based on Thiacarpine, an Analogue of the Cytotoxic Alkaloid Polycarpine from the Ascidian Polycarpa aurata” (Marine Drugs, 2025).

Molecules are shown by their SMILES. Values after ≈ are worked out from the molar mass of the structure shown. Where a name gives a salt, the structure may show the parent alone. Read-outs that look alike come from different tables or passages of the source. A value given as a limit tells only on which side of the number the result lay.

In one data set the test system is HeLa (cervical cancer). In words: MTT cell viability assay, HeLa. Format: cell-based, human. Conditions: Homo sapiens, HeLa, 24 h, 24 h incubation, read-out: Cytotoxicity EC50, HeLa. From the text:
(§1) Human erythrocytes were purchased from the blood transfusion station Vladivostok. Human breast cancer cell lines MCF-7^HTB−22, and MDA-MB-231^CRM-HTB−26, liver hepatocellular carcinoma Hep G2^HB−8065, prostate adenocarcinoma PC-3^CRL−1435, cervical adenocarcinoma HeLa^CRM-CCL−2, and normal bronchial epithelial cells BEAS-2B ^CRL−3588 were received from ATCC (Manassas, VA, USA).
(§2) DMEM medium (Biolot, Russia) with 1% penicillin/streptomycin and 10% fetal bovine serum (FBS) (Biolot, Russia) was used for cultivation of Hep G2, PC-3, HeLa, and Beas-2b. MEM medium (Biolot, Russia) with 1% penicillin/streptomycin sulfate (Biolot, Russia) and FBS (Biolot, Russia) to a final concentration of 10% for MCF-7 and MDA-MB-231 cells.
(§3) The effect of the studied compounds on the viability of human cancer and normal cells was determined using the MTT (3-[4,5-dimethylthiazol-2-yl]-2,5 diphenyl tetrazolium bromide) assay. Briefly, 6 × 10^3 cells per well were seeded into 96-well plates and incubated for 24 h for adhesion, followed by incubation for 24 h with different concentrations of the substances. After incubation, the medium containing the test substances was replaced with 100 µL of fresh medium. Then, 10 μL of MTT (Sigma-Aldrich, Madison, WI, USA) reagent (5 mg/mL MTT in PBS) was added into the cells and the plates for additional 4 h. Thereafter, 100 µL of SDS-HCl solution (1 g SDS/10 mL dH2O/17 µL 6N HCl) was added to each well and incubated for 18 h. The absorbance of the converted formazan dye was measured using a Multiskan FC microplate photometer (Thermo Scientific, Waltham, MA, USA) at a wavelength of 570 nm. All experiments were performed in triplicate. Cytotoxic activity was expressed as a percentage of the cell viability.

The test system of data set [1] is Hep G2 (hepatocellular carcinoma). In words: MTT cell viability assay, Hep G2. Format: cell-based. The note with it: Homo sapiens, HepG2, 24 h incubation, read-out: Cytotoxicity EC50, Hep G2.
Excerpt: as §1, §2, §3
In general terms: Formazan colour is commonly taken as a measure of viable cells.

The test system of data set [2] is MDA-MB-231 (triple-negative breast cancer). In words: MTT cell viability assay, MDA-MB-231. In kind it is cell-based, human. Conditions: Homo sapiens, MDA-MB-231, 24 h, 24 h incubation, read-out: Cytotoxicity EC50, MDA-MB-231 (TNBC).
Excerpt: as §1, §2, §3

Data set [3] in a line: MTT cell viability assay, BEAS-2B normal cells. Format: cell-based. The note with it: human, BEAS-2B normal bronchial epithelial cells, 24 h incubation, read-out: Cytotoxicity EC50, BEAS 2B.
Excerpt: as §1, §2, §3

Data set [4] deals with Candida albicans (KMM 455). In words: Antimicrobial activity, inhibition of microbial growth (optical density). Conditions: 18 h, OD 620 nm; for MIC50: read-out: Inhibition of Microbial Growth MIC50, C. albicans. In kind it is cell-based. On the procedure: (§4) The antimicrobial activity of the compounds was determined against Gram-positive bacteria Staphylococcus aureus (ATCC 21027), Gram-negative bacteria Escherichia coli (VKPM B-7935), and yeast-like fungi Candida albicans (KMM 455) (all test strains were obtained from the Collection of Marine Microorganisms KMM PIBOC FEB RAS) in liquid nutrient media. Test cultures of S. aureus, E. coli, and C. albicans were grown in Petri dishes on a solid nutrient medium (Mueller–Hinton broth with the addition of agar—16.0 g/L) at 37 °C for 24 h. The antimicrobial activity of the compounds was determined by the change in optical density and expressed as the percentage of bacterial inhibition at different concentrations of substances added to the well of the microorganism suspension, compared to the control. The compounds were dissolved in dimethyl sulfoxide (DMSO) at a concentration of 10 mM and stored at −20 °C. Before the experiment, the solution of substances in DMSO was diluted with PBS at a concentration of 0.5–100.0 µM and added to the wells so that the concentration of DMSO in the culture medium was less than 1%. Antimicrobial activity was determined in 96-well microplates in a liquid Mueller–Hinton nutrient medium. For S. aureus, E. coli, and C. albicans, a bacterial suspension of 10^6 CFU in 1 mL of the media was used, 90 μL was added to each well of the microplates and then incubated in a thermostatted shaker at 37 °C for 18 h. Inhibition of microorganism growth was assessed by measuring the optical density at 620 nm using a microplate reader (Thermo Fisher Scientific, Waltham, MA, USA) after preliminary shaking of the plates for 10 min. All experiments were performed in triplicate. Gentamicin (S. aureus and E. coli) and nitrofungin (C. albicans) were used as positive controls, and 1% DMSO in PBS was used as a negative control.

Data set [5] deals with Escherichia coli (VKPM B-7935). The description is as above. Format: cell-based. Conditions: 18 h, OD 620 nm, read-out: Inhibition of Microbial Growth MIC50, E. coli. On the procedure: as §4
Data set [6] deals with Staphylococcus aureus (ATCC 21027). The data set is described as above. In kind it is cell-based. The note with it: 18 h, OD 620 nm, read-out: Inhibition of Microbial Growth MIC50, S. aureus. How it is done: as §4
Data set [7] concerns Candida albicans (KMM 455). In words: Inhibition of biofilm formation (MTT). In kind it is cell-based. Conditions: 24 h. How it is done: (§5) Biofilm formation was performed according to the method described by Walencka et al., with minor modifications. The compounds were dissolved in dimethyl sulfoxide (DMSO) at a concentration of 10 mM and stored at −20 °C. Before the experiment, the solution of substances in DMSO was diluted with PBS at a concentration of 0.5–100.0 µM and added to the wells so that the concentration of DMSO in the culture medium was less than 1%. Biofilm formation was assessed in 96-well microplates in a liquid Mueller–Hinton nutrient medium. For S. aureus, E. coli, and C. albicans, a bacterial suspension of 10^6 CFU in 1 mL of medium was used, 90 μL was added to each well of the microplates and then incubated in a thermostatted shaker at 37 °C for 24 h. After incubation, the suspension of planktonic microorganisms was removed from the plate and washed with PBS. Next, 100 μL of PBS and 10 μL of MTT (3-(4,5-dimethylthiazol-2-yl)-2,5-diphenyltetrazolium bromide, MTT reagent, Sigma) stock solution (5 mg/mL) were added to the wells and incubated for 3 h at 37 °C. After incubation, all the solution was removed from the wells, 100 μL of DMSO was added, and the plate was shaken for 10 min until all formazan crystals had dissolved. The absorption was measured using a plate reader (Thermo Fisher Scientific, Waltham, MA, USA) at a wavelength of 570 nm. The activity of the substances was assessed by the change in optical density compared with that of the control. All experiments were performed in triplicate. Gentamicin (S. aureus and E. coli) and nitrofungin (C. albicans) were used as positive controls, and 1% DMSO in PBS was used as a negative control.

Another data set deals with HeLa cells. In words: Colony formation (clonogenic) assay. Format: cell-based. Conditions: Homo sapiens, 336 h, 14 days. On the procedure:
The effect of the test compounds on HeLa cell proliferation was analyzed using a clonogenic assay. Briefly, HeLa cells were cultured in 6-well plates at a density of 1 × 10^2 cells per well, and compounds were added at concentrations of 5 or 10 μM. Untreated culture medium was used as a control. […] Before fixation and staining, the medium was removed and the cells were washed twice with PBS. The colonies were then fixed with methanol for 25 min and stained with 0.5% crystal violet for 25 min at room temperature. The plates were then washed with water and air-dried.

The test system of a further data set is Human erythrocytes. In words: Hemolytic activity (destruction of erythrocyte membranes). In kind it is cell-based.
Excerpt: as §1

Data set [8] has as its system Escherichia coli (VKPM B-7935). In words: Inhibition of biofilm formation (MTT). The note with it: 24 h. In kind it is cell-based. On the procedure:
as §5

The mark [9] stands for this setting: Staphylococcus aureus, ATCC21027.

For `CC(=O)OC[C@H]1O[C@@H](SSc2sc(N)nc2-c2ccc(Cl)cc2)[C@H](OC(C)=O)[C@@H](OC(C)=O)[C@@H]1OC(C)=O` [Compound 4d, 5-[(2,3,4,6-Tetra-O-acetyl-β-D-glucopyranosyl)disulfanyl]-2-amino-4-(4-chlorophenyl)thiazole], the concentration for a half-maximal effect (EC50) is greater than 25 µM with HeLa (cervical cancer), greater than 25 µM in data set [1] and 22.9 µM in data set [2]. Besides, the concentration giving a half-maximal response (EC50) at 24 h in [3] was 14.1 µM. Moreover, the MIC50 in data set [4] (Candida albicans, KMM455) came to 6.9 ± 0.9 µM (≈ 4.18 µg/mL); in [5] (Escherichia coli), 16.1 ± 1.7 µM (≈ 9.74 µg/mL); in [6] (setting [9]), 19.2 ± 2 µM (≈ 11.6 µg/mL). Also, the “Inhibition of Biofilm Formation MIC50, C. albicans” value in [7] came to 7.03 µM.
Regarding `COc1ccc(-c2nc(N)sc2SS[C@@H]2OC[C@@H](OC(C)=O)[C@H](OC(C)=O)[C@H]2OC(C)=O)cc1` [Compound 4f, 5-[(2,3,4-Tri-O-acetyl-β-D-xylopyranosyl)disulfanyl]-2-amino-4-(4-methoxyphenyl)thiazole], the EC50 in the data set with HeLa (cervical cancer) was 20.4 µM; in [1], 22.6 µM; in data set [2], 22.9 µM. Besides, the 50% effective concentration (EC50) at 24 h in data set [3] is 23.5 µM. Moreover, in the data set on HeLa cells (5 µM, read-out: Colony growth inhibition), the inhibition at 5 µM was roughly 16%. For the same compound, in the data set with HeLa cells (10 µM), the inhibition at 10 µM is 78%. Also, the MIC50 came to 34.1 ± 2.1 µM (≈ 18 µg/mL) in data set [4] (Candida albicans, KMM455); 39.5 ± 4 µM (≈ 20.9 µg/mL) in [5] (Escherichia coli); 32.1 ± 3.7 µM (≈ 17 µg/mL) in data set [6] (setting [9]).
Consider `Cl.Nc1nc(-c2ccc(Br)cc2)c(SS[C@@H]2O[C@H](CO)[C@@H](O)[C@H](O)[C@H]2O)s1` [Compound 5c, 5-[(β-D-glucopyranosyl)disulfanyl]-2-amino-4-(4-bromophenyl)thiazole hydrochloride], for which the EC50 (in the data set with HeLa (cervical cancer); in data set [1]; in data set [2]) was greater than 25 µM throughout. Also, the EC50 at 24 h in [3] was greater than 25 µM. In addition, the “Hemolytic activity, erythrocytes” value in the data set with Human erythrocytes was greater than 25 µM. Moreover, the MIC50 in data set [4] (Candida albicans, KMM455) worked out at 1.6 ± 0.2 µM; in [5] (Escherichia coli) it was 5 ± 0.5 µM; in data set [6] (setting [9]), 3 ± 0.2 µM. Besides, the “Inhibition of Biofilm Formation MIC50, C. albicans” value in [7] is on record as 8.69 µM.
Consider `Nc1nc(-c2ccc(Cl)cc2)c(SS[C@@H]2O[C@H](CO)[C@@H](O)[C@H](O)[C@H]2O)s1` [Compound 5d, 5-[(β-D-glucopyranosyl)disulfanyl]-2-amino-4-(4-clorophenyl)thiazole hydrochloride], for which the concentration for a half-maximal effect (EC50) (with HeLa (cervical cancer); in [1]; in data set [2]) was greater than 25 µM in each case. The concentration for a half-maximal effect (EC50) at 24 h in data set [3] is greater than 25 µM. The “Hemolytic activity, erythrocytes” value in the data set with Human erythrocytes is greater than 25 µM. Besides, the MIC50 in [4] (Candida albicans, KMM455) is 3.1 ± 2.3 µM; in data set [5] (Escherichia coli), 6.6 ± 0.5 µM; in data set [6] (setting [9]), 2.5 ± 0.2 µM. Moreover, the “Inhibition of Biofilm Formation MIC50, E. coli” value (from here on “Inhibition … E. coli”) in data set [8] is listed as 6.00 µM.
With `Cl.Nc1nc(-c2ccc(Br)cc2)c(SS[C@@H]2OC[C@@H](O)[C@H](O)[C@H]2O)s1` [Compound 5h, 5-[(β-D-xylopyranosyl)disulfanyl]-2-amino-4-(4-bromophenyl)thiazole hydrochloride], the EC50 (in the data set with HeLa (cervical cancer); in [1]; in data set [2]) was greater than 25 µM in each case. Moreover, the EC50 at 24 h in data set [3] was determined as 23.5 µM. Besides, the “Hemolytic activity, erythrocytes” value with Human erythrocytes was greater than 25 µM. In addition, the MIC50 worked out at 1.56 µM in data set [4]; 1.6 ± 0.1 µM in data set [4] (Candida albicans, KMM455); 3.08 µM in [5]; 3.1 ± 0.3 µM in data set [5] (Escherichia coli); 1.15 µM in data set [6]; 1.2 ± 0.1 µM in data set [6] (setting [9]). Besides, in data set [7], the “Inhibition of Biofilm Formation MIC50, C. albicans” value turned out to be 3.21 µM. The “Inhibition … E. coli” value in data set [8] is listed as 8.92 µM.
With `Cc1ccc(-c2nc(N)sc2SS[C@@H]2OC[C@@H](O)[C@H](O)[C@H]2O)cc1.Cl` [Compound 5j, 5-[(β-D-xylopyranosyl)disulfanyl]-2-amino-4-(p-tolyl)thiazole hydrochloride], the EC50 (in the data set on HeLa (cervical cancer); in [1]; in data set [2]) was greater than 25 µM in each case. Besides, the EC50 at 24 h in data set [3] was greater than 25 µM. Further, the MIC50 in data set [4] (Candida albicans, KMM455) came out at 15.9 ± 1.1 µM; in data set [5] (Escherichia coli), 38 ± 3 µM; in [6] (setting [9]), 34.5 ± 3 µM. The “Inhibition … E. coli” value in [8] is on record as 5.62 µM.
For `O=[N+]([O-])c1ccc(O)c(Cl)c1` [Nitrofungin, reference compound], in [4], the “Inhibition of Microbial Growth MIC50, C. albicans” value is on record as 4.1 ± 0.5 µM. The “Inhibition of Biofilm Formation MIC50, C. albicans” value in data set [7] was 4.3 ± 0.4 µM.

Broadly, the EC50 is the concentration needed to bring the measured effect to its halfway point. Usually MIC50 stands for an inhibitory concentration at the 50% level, which refers to growth in some studies and to a panel of isolates in others. A word on the inhibition: it is the change of the read-out against control, counted positive when it falls.
